According to PMC9505732, “Chemistry and Bioactivity of the Deep-Water Antarctic Octocoral Alcyonium sp” (Marine Drugs, 2022):
Converted amounts (≈) assume the structure as drawn.

What was measured:
Leishmania donovani = Leishmania donovani infected macrophage assay; type: cell-based; settings: read-out: IC50 against Leishmania donovani
Method: (§1) The Leishmania donovani infected macrophage assay and cytotoxicity screen were conducted as previously described.

C. difficile UK6 = assay: microbe, parasite or virus in culture; type: cell-based, Clostridium difficile; settings: Clostridioides difficile, UK6, 48 h, read-out: MIC against C. difficile
Method: The screening against C. difficile was performed in two steps. In step 1, overnight culture of a hyper-virulent clinical strain C. difficile UK6 was inoculated into a fresh BHIS medium at a volume ratio of 1:1000. After pre-incubation at 37 °C under an anaerobic atmosphere for 2 h, the bacterial culture was divided into a sterile 96-well plate and each well contained 192 μL of bacterial culture. Then, 8 μL of each extract was added to each well of the plate, mixed thoroughly, and incubated at 37 °C in an anaerobic chamber for 48 h. Control groups of 200 μL of BHIS medium only, 200 μL of bacterial culture only, and 192 μL of bacterial culture in 8 μL of DMSO were also included in separate columns within each plate. […] Serial dilutions of each extract (400 μg/mL, 200 μg/mL, 100 μg/mL, 50 μg/mL, 20 μg/mL, 10 μg/mL, 5 μg/mL, and 2 μg/mL) were prepared in a fresh BHIS medium. Then, 100 μL of each extract dilution was added to 100 μL of bacterial culture (pretreated as described), mixed well, and incubated at 37 °C in an anaerobic chamber for 48 h. Control groups including wells containing fresh medium only and bacterial culture only were also included as described. Activity was determined as +/− (clear or turbid (OD600) culture). The MICs of the three recommended antibiotics metronidazole, vancomycin, and fidaxomicin against C. difficile UK6 were also determined using broth microdilution methodology.

HEK293T cells = assay: MTT cytotoxicity toward human kidney cells; type: cell-based; settings: at the same concentrations alcyopterosins were assayed
Method: (§2) The cytotoxicity of the metabolites to human liver cells and kidney cells was determined using an MTT based-In Vitro Toxicology Assay Kit (Sigma–Aldrich, St. Louis, MO, USA) following the manufacturing instructions. The human kidney HEK293T cells and the human liver HEPGZ cells were used for the evaluation in this study. Both cell samples were maintained and suspended in Dulbecco’s Modified Eagle Medium (DMEM with 4.5 g/L glucose, L-glutamine and sodium pyruvate, Corning, Manassas, VA, USA) containing 10% fetal bovine serum (Thermo Scientific) and 1% penicillin/streptomycin at 37 °C under 5% CO2 atmosphere. The cells were plated on a 96-well plate with approximately 5 × 10^3–1 × 10^4 cells in each well, and incubated at 37 °C overnight. After that, each of the selected extracts from the antimicrobial susceptibility test was added to the wells and incubated with the cells at a series of 2-fold diluted concentrations ranging from 128 μg/mL to 0.125 μg/mL. […] After that, the liquid in each well of the plate was removed carefully and thoroughly, then the cells in the wells were treated with 100 μL of DMSO, and incubated at 37 °C for 15 m. […] Bio Tek Instruments, Inc. Winooski VT). Cells treated with vancomycin, a common option for treating CDI in clinical settings, were also included in the MTT tests as a control. Cell survival and the IC50 were calculated according to the method used in a previous publication: Survival of cells (%) = Drug-treated group OD540/control group OD540 × 100. The IC50 value was calculated as follows: lgIC50 = Xm − I [P − (3 − Pm − Pn)/4], where Xm was the log maximum dose, I was the log (maximum dose/adjacent dose), P was the sum of the positive response rate, Pm was the maximum positive response rate, and Pn was the minimum positive response rate.

HepG2 cells = assay: MTT cytotoxicity toward human liver cells; type: cell-based; settings: at the same concentrations alcyopterosins were assayed
Method: as §2

[1] = test system: ESKAPE panel of bacterial pathogens; assay: ESKAPE panel antibacterial screen; type: cell-based
[2] = Cytotoxicity screen against Leishmania host cell line; type: cell-based; settings: mouse, J774.A1 macrophages
Method: as §1

[3] = MTT cytotoxicity toward human kidney cells; type: cell-based; settings: human, HEK293T cells; host cell line HEK293T, MTT, 24 h incubation
Method: as §2

[4] = MTT cytotoxicity toward human liver cells; type: cell-based; settings: human, HepG2 cells; host cell line HepG2, MTT, 24 h incubation
Method: as §2

Structure (SMILES)	IC50 (Leishmania donovani) [µM]	MIC (C. difficile UK6) [µM]	activity against the ESKAPE panel of bacterial pathogens [1]	further results
CN[C@H](CC(C)C)C(=O)N[C@H]1C(=O)N[C@@H](CC(N)=O)C(=O)N[C@H]2C(=O)N[C@H]3C(=O)N[C@H](C(=O)N[C@H](C(=O)O)c4cc(O)cc(O)c4-c4cc3ccc4O)[C@H](O)c3ccc(c(Cl)c3)Oc3cc2cc(c3O[C@@H]2O[C@H](CO)[C@@H](O)[C@H](O)[C@H]2O[C@H]2C[C@](C)(N)[C@H](O)[C@H](C)O2)Oc2ccc(cc2Cl)[C@H]1O [Vancomycin, reference compound]	–	0.34 (≈ 0.493 µg/mL)	–	toxicity to host cells HEK293T (HEK293T cells): non-toxic; toxicity to host cells HepG2 (HepG2 cells): non-toxic
Cc1cc2c(c3c1[C@@H](CO)OC3=O)CC(C)(C)C2 [Alcyopterosin V]	7	8.1 (≈ 2 µg/mL)	inactive	IC50 [2]: 110 µM; CC50 at 24 h [3]: 220 µM; CC50 at 24 h [4]: 288 µM
CC(=O)O[C@@H]1[C@H](OC(C)=O)[C@H]([C@H](C)CCCC(C)C)[C@@]2(C)C[C@@H](OC(C)=O)[C@H]3[C@@H](C[C@@H](O)[C@H]4CC=CC(=O)[C@]34C)[C@H]12 [alcyosterone]	1.5	–	inactive	–
Cc1cc2c(c3c1[C@@H](CO[N+](=O)[O-])OC3=O)CC(C)(C)C2 [Alcyopterosin E]	3.1	6.9 (≈ 2.01 µg/mL)	inactive	IC50 [2]: 62 µM; CC50 at 24 h [3]: 570 µM; CC50 at 24 h [4]: 331 µM

The next lines start with results.

IC50 (Leishmania donovani) [µM]	Structure (SMILES)	MIC (C. difficile UK6) [µM]	activity against the ESKAPE panel of bacterial pathogens [1]	further results
2.4	Cc1cc2c(c3c1[C@@H](CCl)OC3=O)CC(C)(C)[C@@H]2O [alcyopterosin L]	–	–	–
6.2	CCCCCCCCCCCCCCCCOP(=O)([O-])OCC[N+](C)(C)C [miltefosine, reference compound]	–	–	–
1.2	CC(=O)OCCc1c(C)cc2c(c1COC(C)=O)CC(C)(C)C2 [4,12-Bis(acetyl)alcyopterosin O, 4,12-bis(acetyl)alcyopterosin O]	–	–	–
13	Cc1cc2c(c(C)c1CCO[N+](=O)[O-])CC(C)(C)C2=O [alcyopterosin C]	–	–	–
